# Experimental data reported in patent US10603345B2, “Pharmaceutical composition for treating respiratory disease” (Kunming Institute of Botany, The Chinese Academy of Sciences, priority 2015, dated 2020).
# Legend:
# Assay type in all cases: in vivo
# TNF-α in LPS-induced rat = assay: Effect on TNF-α in LPS-induced rat; details: ig 7 d, dose/kg: DXM 1.5 mg, Test group 1 30 mg, 2 15 mg, 3 7.5 mg, x ± S
# Experimental: (§1) Animal source: 190˜220 g male SD rat, from laboratory animal department of Kunming Medical University, License No. SCXK (Dian) 2011-0004.
# (§2) Method and route: lipopolysaccharide (LPS) was used to induce a rat airway inflammation model; after intragastrical administration for 7 d at a dose of 10 mL/kg, the animal was sacrificed at the eighth day.
# (§3) Sample preparation: all the samples were prepared by using 0.5% carboxymethylcellulose sodium (0.5% CMC-Na).
# Group and dose: in Test group 1 and Test group 2, the ratio of picrinine, vallesamine, scholaricine and 19-epischolaricine by weight was, 45:36:7:10 and 10:18:9:2, respectively, and the other groups and doses thereof were as described in Example 9.
# Test index: TNF-α in bronchoalveolar lavage fluid (BALF), serum, and homogenate was used as index.
# AKP in LPS-induced rat = assay: Effect on AKP in LPS-induced rat; details: ig 7 d, dose/kg: DXM 1.5 mg, Test group 1 30 mg, 2 15 mg, 3 7.5 mg
# Experimental: as §1, §2, §3
# Group and dose: in Test group 1 and Test group 2, the ratio of picrinine, vallesamine, scholaricine and 19-epischolaricine by weight was 8:25:30:9 and 12:10:9:2, respectively, and the other groups and doses thereof were as described in Example 9.
# Test index: AKP in bronchoalveolar lavage fluid (BALF), and serum was used as index.
# ALB in LPS-induced rat = assay: Effect on ALB in LPS-induced rat; details: ig 7 d, dose/kg: DXM 1.5 mg, Test group 1 30 mg, 2 15 mg, 3 7.5 mg
# Experimental: as §1, §2, §3
# Group and dose: in Test group 1 and Test group 2, the ratio of picrinine, vallesamine, scholaricine and 19-epischolaricine by weight was 36:38:7:1 and 16:15:14:5, respectively, and the other groups and doses thereof were as described in Example 9.
# Test index: ALB in bronchoalveolar lavage fluid (BALF), and serum was used as index.
# IL-8 in LPS-induced rat = assay: Effect on IL-8 in LPS-induced rat; details: ig 7 d, dose/kg: DXM 1.5 mg, Test group 1 30 mg, 2 15 mg, 3 7.5 mg, x ± S
# Experimental: as §1, §2, §3
# Group and dose: in Test group 1 and Test group 2, the ratio of picrinine, vallesamine, scholaricine and 19-epischolaricine by weight was 48:10:30:9 and 12:14:15:6, respectively, and the other groups and doses thereof were as described in Example 9.
# Test index: IL-8 in bronchoalveolar lavage fluid (BALF), serum, and homogenate was used as index.
# LDH in LPS-induced rat = assay: Effect on LDH in LPS-induced rat; details: ig 7 d, dose/kg: DXM 1.5 mg, Test group 1 30 mg, 2 15 mg, 3 7.5 mg
# Experimental: as §1, §2, §3
# Group and dose: in Test group 1 and Test group 2, the ratio of picrinine, vallesamine, scholaricine and 19-epischolaricine by weight was 10:28:15:8 and 10:7:7:2, respectively, and the other groups and doses thereof were as described in Example 9.
# Test index: LDH in bronchoalveolar lavage fluid (BALF), and serum was used as index.
# SOD in LPS-induced rat = assay: Effect on SOD in LPS-induced rat; details: ig 7 d, dose/kg: DXM 1.5 mg, Test group 1 30 mg, 2 15 mg, 3 7.5 mg, x ± S
# Experimental: as §1, §2, §3
# Group and dose: in Test group 1 and Test group 2, the ratio of picrinine, vallesamine, scholaricine and 19-epischolaricine by weight was 8:45:29:9 and 20:14:12:7, respectively, and the other groups and doses thereof were as described in Example 9.
# Test index: SOD in bronchoalveolar lavage fluid (BALF), serum, and homogenate was used as index.
# [1] = test system: inflammatory cell in LPS-induced rat; assay: Effect on inflammatory cell and classification in BALF of LPS-induced rat; details: ig 7 d, dose/kg: DXM 1.5 mg, Test group 1 30 mg, 2 15 mg, 3 7.5 mg, x ± S
# Experimental: as §1, §2, §3
# Group and dose: in Test group 1 and Test group 2, the ratio of picrinine, vallesamine, scholaricine and 19-epischolaricine by weight was 43:16:30:8 and 20:38:30:7, respectively, and the other groups and doses thereof were as described in Example 9.
# Test index: Total number of white blood cells (WBCs) and inflammatory cell classification in bronchoalveolar lavage fluid (BALF) were used as indexes.
# NO in LPS-induced rat = assay: Effect on NO in LPS-induced rat; details: ig 7 d, dose/kg: DXM 1.5 mg, Test group 1 30 mg, 2 15 mg, 3 7.5 mg, x ± S
# Experimental: as §1, §2, §3
# Group and dose: in Test group 1 and Test group 2, the ratio of picrinine, vallesamine, scholaricine and 19-epischolaricine by weight was 40:30:28:2 and 15:18:26:7, respectively, and the other groups and doses thereof were as described in Example 9.
# Test index: NO in bronchoalveolar lavage fluid (BALF), serum, and homogenate was used as index.
# MDA in LPS-induced rat = assay: Effect on MDA in LPS-induced rat; details: ig 7 d, dose/kg: DXM 1.5 mg, Test group 1 30 mg, 2 15 mg, 3 7.5 mg, x ± S
# Source text: Group and dose: in Test group 1 and Test group 2, the ratio of picrinine, vallesamine, scholaricine and 19-epischolaricine by weight was 45:6:28:3 and 17:14:9:4, respectively, and the other groups and doses thereof were as described in Example 9.
# Test index: MDA in bronchoalveolar lavage fluid (BALF), serum, and homogenate was used as index.
smiles,measurement,setting,value
"C[C@@H]1C[C@H]2[C@@H]3CCC4=CC(=O)C=C[C@]4(C)[C@@]3(F)[C@@H](O)C[C@]2(C)[C@@]1(O)C(=O)CO [DXM, dexamethasone]",TNF-a BALF,TNF-α in LPS-induced rat; BALF,11.28 ± 4.51 pg/mL
same,TNF-a lung tissue,TNF-α in LPS-induced rat; lung tissue homogenate,152.11 ± 37.64 pg/mL
same,TNF-a Serum,TNF-α in LPS-induced rat; serum,5.11 ± 1.67 pg/mL
same,AKP BALF,AKP in LPS-induced rat; BALF,29.0 ± 5.9 U/L
same,AKP Serum,AKP in LPS-induced rat; serum,116.1 ± 36.0 U/L
same,ALB BALF,ALB in LPS-induced rat; BALF,0.18 ± 0.07 g/L
same,ALB Serum,ALB in LPS-induced rat; serum,19.4 ± 1.4 g/L
same,IL-8 BALF,IL-8 in LPS-induced rat; BALF,24.62 ± 12.42 pg/mL
same,IL-8 lung tissue,IL-8 in LPS-induced rat; lung tissue homogenate,60.62 ± 20.11 pg/mL
same,IL-8 serum,IL-8 in LPS-induced rat; serum,29.62 ± 12.13 pg/mL
same,LDH BALF,LDH in LPS-induced rat; BALF,96.7 ± 25.6 U/L
same,LDH Serum,LDH in LPS-induced rat; serum,386.5 ± 92.7 U/L
same,SOD BALF,SOD in LPS-induced rat; BALF,63.35 ± 13.45 U/mL
same,SOD Lung tissue,SOD in LPS-induced rat; lung tissue homogenate,92.25 ± 8.88 U/mL
same,SOD Serum,SOD in LPS-induced rat; serum,307.6 ± 97.7 U/mL
same,BALF cell classification AM (alveolar macrophage),[1],52.5 ± 7.0 %
same,BALF cell classification L (lymphocyte),[1],9.3 ± 5.0^ %
same,BALF cell classification M (monocyte),[1],28.9 ± 6.20 %
same,BALF cell classification N (neutrophil),[1],8.2 ± 2.9 %
same,WBC,[1],3.35 ± 1.89 × 10^5/ml
same,NO BALF,NO in LPS-induced rat; BALF,13.52 ± 4.17 µmol/L
same,NO Lung tissue,NO in LPS-induced rat; lung tissue homogenate,18.35 ± 5.30 µmol/L
same,NO Serum,NO in LPS-induced rat; serum,27.20 ± 7.67 µmol/L
same,MDA lung tissue,MDA in LPS-induced rat; lung tissue homogenate,1.61 ± 0.71 nmol/mL
same,MDA Serum,MDA in LPS-induced rat; serum,4.21 ± 1.49 nmol/mL
